The values below come from patent US9447039B2, “Indole carboxamide derivatives and uses thereof” (priority 2012, dated 2016).

The structures appear in SMILES notation. Values after ≈ are worked out from the molar mass of the structure shown.

In this assay the test system is Mycobacterium tuberculosis H37Rv (ATCC #27294). The experiment in a line: Minimum Inhibitory Concentration (MIC50) determination. The assay is classed as cell-based. The note with it: 120 h. The method, then: Mycobacterium tuberculosis H37Rv (ATCC #27294) (Mtb) strain was maintained in Middlebrook 7H9 broth medium supplemented with 0.05% Tween 80 and 10% ADS supplement. ADS supplement contains 5% bovine serum albumin fraction V. 2% D-dextrose and 0.8% of sodium chloride. Middlebrook 7H11 agar medium supplemented with 10% OADC (oleic acid, albumin, dextrose and catalase) was used as solid media for growing Mtb. Stock solutions of the compounds were prepared using 90% DMSO.
Minimum Inhibitory Concentration (MIC50) Determination
In Table 5 below, MIC50 is defined as the lowest concentration of the compound that inhibited 50% growth of the wild type strain compared to untreated controls. Test compounds were two or three fold serially diluted in duplicates and spotted by mosquito HTS to 384-well clear plates, resulting in 10 dilutions of each compound. A volume of 50 μl of Mtb culture (final OD600 of 0.02) was added to each well, and the assay plates were incubated at 37° C. for 5 days. Growth of bacteria was measured by reading absorbance at 600 nm using a Spectramax M2 spectrophotometer. MIC50 values were determined by using Activity Base software.

A word on the MIC50: it is an inhibitory concentration at the 50% level, which refers to growth in some studies and to a panel of isolates in others. Higher therefore signals weaker potency. Compound `Cc1cc(Br)cc2[nH]c(C(=O)N[C@@H]3CCCC[C@@H]3C)cc12` [Example 4AH, 6-Bromo-4-methyl-N-((1R,2S)-2-methylcyclohexyl)-1H-indole-2-carboxamide] came in with an MIC50 of 0.01 µM (≈ 0.00349 µg/mL). This counts as double-digit nanomolar.

For `C[C@H]1CCCC[C@H]1NC(=O)c1cc2c(F)cc(F)cc2[nH]1` [Example 4BA, 4,6-Difluoro-N-((1R,2S)-2-methylcyclohexyl)-1H-indole-2-carboxamide], the MIC50 stood at 0.28 µM (≈ 0.0819 µg/mL). This MIC50 is about 28-fold higher than that of the compound before.

For `Cc1cc(C)c2cc(C(=O)Nc3ccc(C(C)C)cc3)[nH]c2c1` [Example 3A, N-(4-Isopropylphenyl)-4,6-dimethyl-1H-indole-2-carboxamide], the MIC50 was found to be 8.67 µM (≈ 2.66 µg/mL).

`C[C@H]1CCCC[C@H]1NC(=O)c1cc2c(C(F)(F)F)cc(C(F)(F)F)cc2[nH]1` [Example 4BC, N-((1R,2S)-2-Methylcyclohexyl)-4,6-bis(trifluoromethyl)-1H-indole-2-carboxamide] displayed an MIC50 of 1.6 µM (≈ 0.628 µg/mL).

On to `CC1CCC(NC(=O)c2cc3c(F)cc(Cl)cc3[nH]2)CC1` (stereo not drawn) [Example 4AS, 6-Chloro-4-fluoro-N-(4-methylcyclohexyl)-1H-indole-2-carboxamide], for which the MIC50 was 0.23 µM (≈ 0.071 µg/mL).

Turning to `COc1ccc2[nH]c(C(=O)N[C@@H]3CCCC[C@@H]3C)cc2c1` [Example 4AR, 5-Methoxy-N-((1R,2S)-2-methylcyclohexyl)-1H-indole-2-carboxamide], the MIC50 was 7.53 µM (≈ 2.16 µg/mL).

Turning to `CCNc1cc(C)c2cc(C(=O)N[C@@H]3CCCC[C@@H]3C)[nH]c2c1` [Example 6D, 6-(Ethylamino)-4-methyl-N-((1R,2S)-2-methylcyclohexyl)-1H-indole-2-carboxamide], the MIC50 is 4.86 µM (≈ 1.52 µg/mL).

For `CC1CCC(NC(=O)c2cc3ccc(F)cc3[nH]2)CC1` (stereo not drawn) [Example 4BF, 6-Fluoro-N-(4-methylcyclohexyl)-1H-indole-2-carboxamide], the MIC50 was 1.62 µM (≈ 0.444 µg/mL). This MIC50 is about 3-fold lower than that of the compound before.

In turn, `Cc1ccc(NC(=O)c2cc3c(C)cc(C)cc3[nH]2)cc1` [Example 3K, 4,6-Dimethyl-N-(p-tolyl)-1H-indole-2-carboxamide] yielded an MIC50 of 5.64 µM (≈ 1.57 µg/mL).

The compound `C[C@H]1CCCC[C@H]1NC(=O)c1cc2c(Cl)cc(Cl)cc2[nH]1` [Example 4J, 4,6-Dichloro-N-((1R,2S)-2-methylcyclohexyl)-1H-indole-2-carboxamide] had an MIC50 of 0.035 µM (≈ 0.0114 µg/mL).

`Cc1cc(NC(C)C)cc2[nH]c(C(=O)N[C@@H]3CCCC[C@@H]3C)cc12` [Example 6E, 6-(Isopropylamino)-4-methyl-N-((1R,2S)-2-methylcyclohexyl)-1H-indole-2-carboxamide] returned an MIC50 of 2.92 µM (≈ 0.958 µg/mL).

The compound `Cc1cc(Nc2ccccc2)cc2[nH]c(C(=O)N[C@@H]3CCCC[C@@H]3C)cc12` [Example 6A, 4-methyl-N-((1R,2S)-2-methylcyclohexyl)-6-(phenylamino)-1H-indole-2-carboxamide] came in with an MIC50 of 0.145 µM (≈ 0.0524 µg/mL).

As for `Cc1cc(C)c2cc(C(=O)N[C@@H]3CCC[C@H](C)[C@@H]3C)[nH]c2c1` [Example 4B, N-((1R,2S,3S)-2,3-Dimethylcyclohexyl)-4,6-dimethyl-1H-indole-2-carboxamide], the MIC50 worked out at 0.01 µM (≈ 0.00298 µg/mL). Compared with the last compound, the MIC50 is about 14-fold lower.

The compound `C[C@H]1CCCC[C@H]1NC(=O)c1cc2c(F)cccc2[nH]1` [Example 4AY, 4-Fluoro-N-((1R,2S)-2-methylcyclohexyl)-1H-indole-2-carboxamide] yielded an MIC50 of 1.83 µM (≈ 0.502 µg/mL). Against the preceding compound, the MIC50 is about 180-fold higher.

In turn, `COc1ccc2cc(C(=O)N[C@@H]3CCCC[C@@H]3C)[nH]c2c1` [Example 4AM, 6-Methoxy-N-((1R,2S)-2-methylcyclohexyl)-1H-indole-2-carboxamide] returned an MIC50 of 6.19 µM (≈ 1.77 µg/mL).

`CC1(C)CCC(NC(=O)c2cc3c(Cl)cc(Cl)cc3[nH]2)CC1` [Example 1A, 4,6-dichloro-N-(4,4-dimethylcyclohexyl)-1H-indole-2-carboxamide] came in with an MIC50 of 0.015 µM (≈ 0.00509 µg/mL).

Take `Cc1cc(OCCN2CCOCC2)cc2[nH]c(C(=O)NC3CCCCC3)cc12` [Example 9A, N-Cyclohexyl-4-methyl-6-(2-morpholinoethoxy)-1H-indole-2-carboxamide]: the MIC50 was determined as 4.94 µM (≈ 1.9 µg/mL).

As for `CC1CCC(NC(=O)c2cc3c(F)cc(F)cc3[nH]2)CC1` (stereo not drawn) [Example 4F, 4,6-Difluoro-N-(4-methylcyclohexyl)-1H-indole-2-carboxamide], the MIC50 was 0.37 µM (≈ 0.108 µg/mL).

Regarding `Cc1cc(Br)c2cc(C(=O)N[C@@H]3CCCC[C@@H]3C)[nH]c2c1` [Example 4AI, 4-Bromo-6-methyl-N-((1R,2S)-2-methylcyclohexyl)-1H-indole-2-carboxamide], the MIC50 is 0.06 µM (≈ 0.021 µg/mL).

On to `Cc1ccc2cc(C(=O)N[C@@H]3CCCC[C@@H]3C)[nH]c2c1` [Example 4Z, 6-Methyl-N-((1R,2S)-2-methylcyclohexyl)-1H-indole-2-carboxamide], for which the MIC50 worked out at 0.36 µM (≈ 0.0973 µg/mL).

For the compound `CC1CCC(NC(=O)c2cc3c(C(F)(F)F)cc(C(F)(F)F)cc3[nH]2)CC1` (stereo not drawn) [Example 4H, N-(4-Methylcyclohexyl)-4,6-bis(trifluoromethyl)-1H-indole-2-carboxamide], the MIC50 turned out to be 0.32 µM (≈ 0.126 µg/mL).

`CCC(CC)NC(=O)c1cc2c(C)cc(C)cc2[nH]1` [Example 3F, 4,6-Dimethyl-N-(pentan-3-yl)-1H-indole-2-carboxamide] came in with an MIC50 of 4.33 µM (≈ 1.12 µg/mL).

For the compound `CC1CCC(NC(=O)c2cc3c(Cl)cc(Cl)cc3[nH]2)CC1` (stereo not drawn) [Example 4G, 4,6-Dichloro-N-(4-methylcyclohexyl)-1H-indole-2-carboxamide], the MIC50 came out at 0.057 µM (≈ 0.0185 µg/mL).

`C[C@H]1CCCC[C@H]1NC(=O)c1cc2ccc(Br)cc2[nH]1` [Example 4AC, 6-Bromo-N-((1R,2S)-2-methylcyclohexyl)-1H-indole-2-carboxamide] had an MIC50 of 0.5 µM (≈ 0.168 µg/mL).

As to `Cc1cc(C)c2cc(C(=O)N[C@H]3CCC[C@@H](C)[C@H]3C)[nH]c2c1` [Example 4I, N-((1S,2R,3R)-2,3-Dimethylcyclohexyl)-4,6-dimethyl-1H-indole-2-carboxamide], the MIC50 was determined as 0.02 µM (≈ 0.00597 µg/mL).

The compound `C[C@H]1CCCC[C@H]1NC(=O)c1cc2c(Br)cccc2[nH]1` [Example 4AB, 4-Bromo-N-((1R,2S)-2-methylcyclohexyl)-1H-indole-2-carboxamide] showed an MIC50 of 0.29 µM (≈ 0.0972 µg/mL).

As to `Cc1cc(N2CCCCC2)cc2[nH]c(C(=O)N[C@@H]3CCCC[C@@H]3C)cc12` [Example 6C, 4-Methyl-N-((1R,2S)-2-methylcyclohexyl)-6-(piperidin-1-yl)-1H-indole-2-carboxamide], the MIC50 is 5.12 µM (≈ 1.81 µg/mL).

The compound `N#Cc1ccc2cc(C(=O)NC3CCCCC3)[nH]c2c1` [Example 4AF, 6-Cyano-N-cyclohexyl-1H-indole-2-carboxamide] registered an MIC50 of 2.27 µM (≈ 0.608 µg/mL).

`COc1ccc2[nH]c(C(=O)N[C@@H]3CCCC[C@@H]3C)cc2c1OC` [Example 4AN, 4,5-Dimethoxy-N-((1R,2S)-2-methylcyclohexyl)-1H-indole-2-carboxamide] yielded an MIC50 of 1.02 µM (≈ 0.323 µg/mL).

`CC1CCC(NC(=O)c2cc3c(Cl)cccc3[nH]2)CC1` (stereo not drawn) [Example 4Y, 4-Chloro-N-(4-methylcyclohexyl)-1H-indole-2-carboxamide]: the MIC50 is 0.22 µM (≈ 0.064 µg/mL).

In turn, `C#CC1CCCCC1NC(=O)c1cc2c(Cl)cc(Cl)cc2[nH]1` (stereo not drawn) [Example 4BE, 4,6-Dichloro-N-(2-ethynylcyclohexyl)-1H-indole-2-carboxamide] gave an MIC50 of 0.22 µM (≈ 0.0738 µg/mL).

The compound `Cc1cc(C)c2cc(C(=O)Nc3ccccc3C)[nH]c2c1` [Example 3L, 4,6-Dimethyl-N-(o-tolyl)-1H-indole-2-carboxamide] returned an MIC50 of 3.12 µM (≈ 0.868 µg/mL). This MIC50 is about 14-fold higher than that of the compound before.

Consider `Cc1cc(C)c2cc(C(=O)NCCC(C)C)[nH]c2c1` [Example 3D, N-Isopentyl-4,6-dimethyl-1H-indole-2-carboxamide], for which the MIC50 was 3.26 µM (≈ 0.842 µg/mL).

Consider `C[C@H]1CCCC[C@H]1NC(=O)c1cc2ccc(F)cc2[nH]1` [Example 4AZ, 6-Fluoro-N-((1R,2S)-2-methylcyclohexyl)-1H-indole-2-carboxamide], for which the MIC50 amounted to 1.35 µM (≈ 0.37 µg/mL).

`Cc1ccc2[nH]c(C(=O)NC3CCCCC3)c(C)c2c1` [Example 4BD, N-cyclohexyl-3,5-dimethyl-1H-indole-2-carboxamide] yielded an MIC50 of 3.51 µM (≈ 0.949 µg/mL).

Compound `COc1cc(OC)c2cc(C(=O)N[C@@H]3CCCC[C@@H]3C)[nH]c2c1` [Example 4AO, 4,6-Dimethoxy-N-((1R,2S)-2-methylcyclohexyl)-1H-indole-2-carboxamide] came in with an MIC50 of 1.46 µM (≈ 0.462 µg/mL).

For the compound `O=C(NC1CCC(F)(F)CC1)c1cc2c(Cl)cc(Cl)cc2[nH]1` [Example 4P, 4,6-Dichloro-N-(4,4-difluorocyclohexyl)-1H-indole-2-carboxamide], the MIC50 was 0.565 µM (≈ 0.196 µg/mL).

In turn, `C[C@H]1CCCC[C@H]1NC(=O)c1cc2cc3c(cc2[nH]1)OCO3` [Example 4AP, N-((1R,2S)-2-Methylcyclohexyl)-5H-[1,3]dioxolo[4,5-f]indole-6-carboxamide] had an MIC50 of 2.13 µM (≈ 0.64 µg/mL). Against the preceding compound, the MIC50 is about 3.8-fold higher.

In turn, `CCC(C)NC(=O)c1cc2c(C)cc(C)cc2[nH]1` (stereo not drawn) [Example 3M, N-(sec-Butyl)-4,6-dimethyl-1H-indole-2-carboxamide] gave an MIC50 of 9.33 µM (≈ 2.28 µg/mL).

`Cc1cc(C)c2cc(C(=O)NC3CCCCC3C(C)C)[nH]c2c1` (stereo not drawn) [Example 4O, N-(2-Isopropylcyclohexyl)-4,6-dimethyl-1H-indole-2-carboxamide] registered an MIC50 of 0.765 µM (≈ 0.239 µg/mL).

Compound `COC1CCCCC1NC(=O)c1cc2c(C)cc(C)cc2[nH]1` (stereo not drawn) [Example 4N, N-(2-Methoxycyclohexyl)-4,6-dimethyl-1H-indole-2-carboxamide] yielded an MIC50 of 5.78 µM (≈ 1.74 µg/mL).

Consider `N#Cc1ccc2cc(C(=O)NC3CCC(F)(F)CC3)[nH]c2c1` [Example 4AG, 6-Cyano-N-(4,4-difluorocyclohexyl)-1H-indole-2-carboxamide], for which the MIC50 turned out to be 3.36 µM (≈ 1.02 µg/mL).
